Laboratory results reported in patent US20050004007A1, “Promotion of adoptosis in cancer cells by co-administration of cyclin dependent kinase inhibitiors and cellular differentiation agents” (priority 2000, published 2005).

Columns and labels:
[1] = tested on: HL-60 human promyelocytic leukemia cells; test: morphological assessment of apoptosis; type: cell-based; settings: 3, 5, or 10 μM ATRA, 80 nM FP
Source text: (§1) Cell culture. The myelomonocytic leukemia cell line U937 was derived from a patient with histiocytic lymphoma and was obtained from American Type Culture Collection. The HL-60 cell line was derived from a patient with acute promyelocytic leukemia as previously described [Grant et al. 1992]. U937 and HL-60 cells were maintained in logarithmic growth phase by culturing in suspension in phenol red-free RPMI-1640 (Life Technologies, Inc., Grand Island, N.Y.) and 10% (v/v) fetal calf serum (Hyclone, Logan, Utah), in a humidified atmosphere (95% air/5% CO2) at 37° C. To obtain antisense-expressing cell lines, U937 cells were transfected by electroporation with a pREP4 vector (Invitrogen; Carlsbad, Calif.) or the pREP4 vector containing the p21^WAF1/CIP1 coding region in an antisense orientation as previously described [Wang et al. 1999]. […]
(§2) Morphological assessment of apoptosis. U937 cells were evaluated for apoptosis by morphological assessment of Wright and Giemsa-stained cytospin preparations. At designated times, cells were transferred to slides by cytocentrifugation, fixed, stained, and evaluated under light microscopy for treatment-induced apoptosis. […] Five or more randomly selected fields, encompassing a total≧500 cells/slide, were evaluated to determine the percentage of apoptotic cells for each treatment condition.

p21WAF1/CIP1 = test: Western analysis of p21WAF1/CIP1 expression in U937 cells; type: cell-based, human
Procedure: (§3) Western analysis. Equal quantities of protein (15 μg/condition for MAPK, 40 μg/condition for cytochrome c, or 25 μg/condition) were separated by SDS-PAGE [underphosporylated pRB (7.5%), poly(ADP-ribose)polymerase or PARP (8.0%), p44/p42 MAPK (10%), p21, p27, procaspase 3 (12%), and cytochrome c (15%)] and electroblotted onto nitrocellulose. Western analysis of p44/p42 MAPK protein was performed according to the manufacturer's instructions (New England Biolabs); otherwise, studies were performed as previously described [Wang et al, 1998]. Briefly, U937 cells (5×10^6) were pelleted by centrifugation, resuspended in 50 μl PBS, lysed by the addition of 2× Laemmli buffer and boiled for 5 min. Proteins were quantified with Coomassie protein assay reagent. Blots were blocked in PBS-T/5% milk, washed twice with PBS-T, and incubated overnight at 4° C. with the appropriate primary antibody. The blots were washed with PBS-T and incubated with a horseradish-peroxidase conjugated secondary antibody diluted appropriately in PBS-T/5% mill. Following incubation, blots were developed by enhanced chemiluminescence exposure to Kodak X-OMAT film (Eastman Kodak Co., Rochester, N.Y.) and reprobed with antibodies directed against actin to control for equal loading of protein.
(§4) Alternatively, whole cell-pellets were washed twice in PBS, resuspended in PBS, and lysed by the addition of I volume of loading buffer. Lysates were boiled for 10 min, centrifuged at 12,800 g for 5 min and quantified using Coomassie protein assay reagent (Pierce, Rockfold, Ill.). 25 μg of total proteins per point were separated by SDS-PAGE and electro-blotted to nitrocellulose. The blots were blocked in 5% non-fat milk in PBS-T and probed for 1 h with the appropriate dilution of primary antibody. Blots were washed 3×10 min in PBS-T and then incubated with a 1:2000 dilution of peroxidase-conjugated secondary antibody for 1 h at room temperature. Blots were again washed 3×10 min in PBS-T and then developed by enhanced chemiluminesence. Where indicated, blots were stripped and re-probed with antibodies directed against actin.
(§5) Primary antibodies for both p21^WAF1/CIP1 and p27^KIP1 (Transduction Laboratories, Lexington, Ky.) were used in a 1:1000 dilution; PARP (1:1000; Oncogene Research Products, Cambridge, Mass.); pro-caspase 3 (1:1000; Transduction Laboratories); cytochrome c (1:2000; Pharmingen); bcl-2 (1:2000; DAKO, Denmark); bax (1:1000; Santa Cruz Biotechnology, Inc., Santa Cruz, Calif.); bid (1:1000; Cell Signaling, Beverly, Mass.); XIAP (1:1000; Cell Signaling); Mcl-1 (1:1000; Pharmingen); bak (1:1000; Calbiochem); c-Myc (1:1000; Pharmingen, San Diego, Calif.); actin (1:2000; Sigma Chemicals, St. Louis, Mo.); cyclins-D1, -A and -E (1:1000; Pharmingen); pRb, underP-pRb, pRb-CDK2 and pRb-CDK4 (all 1:1000; Pharmingen); Ac-H3 and Ac-H4 (both 1:1000; Upstate Biotechnology, Lake Placid, N.Y.); E2F-1 (Upstate Biotechnology). Secondary antibodies conjugated to horseradish peroxidase were obtained from Kirkegaard and Perry Laboratories, Inc. (Gaithersburg, Md.). Coomassie protein assay reagent was purchased from Pierce (Rockford, Ill.), and an enhanced chemiluminescence kit was obtained from New England Nuclear (Boston, Mass.). The pan-caspase inhibitor BOC-D-fmk and the caspase 8 inhibitor Z-IETD-fmk were purchased from Enzyme System Products (Livermore, Calif.) All other chemicals or reagents were purchased from Sigma.

p27KIP1 = test: Western analysis of p27KIP1 expression in U937 cells; type: cell-based, human; settings: 10 nM PMA, FP 50-100 nM, 24 h
Procedure: as §3, with “Following incubation, blots were developed by enhanced chemiluminescence exposure to Kodak X-OMAT film (Eastman Kodak Co., Rochester, N.Y.) and reprobed with antibodies directed against actin to control for equal loading of protein.” left out
Alternatively, whole cell-pellets were washed twice in PBS, resuspended in PBS, and lysed by the addition of I volume of loading buffer. Lysates were boiled for 10 min, centrifuged at 12,800 g for 5 min and quantified using Coomassie protein assay reagent (Pierce, Rockfold, Ill.). […]

[2] = tested on: p21WAF1/CIP1 full-length promoter; test: p21WAF1/CIP1 luciferase reporter assay; type: cell-based, human; settings: 10 nM PMA, 100 nM FP, 3 and 6 h
Procedure: (§6) Differentiation studies. Expression of the monocytic differentiation marker, CD11b, was monitored by direct immunofluorescence staining and flow cytometric analysis as previously described [Freemerman et al. 1997]. Following drug treatment, suspension and adherent cells were enumerated by a Coulter Counter and 2×10^6 cells were pelleted by centrifugation. The supernatant was aspirated and the cells were resuspended in 300 μl of ice-cold PBS. Two 100 μl aliquots from each sample were then combined with either phycoerythrin-1 (10 μl) or the IgG control. Samples were incubated for 20 min at 4° C. and diluted in PBS (1 ml). Sample data were collected using a Becton Dickinson FACScan flow cytometer and analyzed with Verity Winlist Software (Verity; Topsham, Me.). […] U937 cells were transfected with a full-length p21^WAF1/CIP1 promoter (base pairs 1-2326) as described by Chinery et al. [Chinery et al. 1997] utilizing electroporation (Eppendorf Multiporator, 620V, 60 μs) in hypoosmolar buffer. […] Lysates (20 μL) were mixed with luciferase assay reagent (100 μL) and monitored for 20 seconds in a luminometer (Monolight 2010). […] The reaction was terminated by addition of NaCO3 and absorbance was measured at 405 nm in a Vmax plate reader (Molecular Devices). Activity was determined by comparison to a standard curve. […]

U937 cells [3] = test: CD11b surface differentiation marker expression (flow cytometry); type: cell-based, human; settings: 24 h; 10 nM PMA alone or with 50 nM FP
Procedure: Differentiation studies. Expression of the monocytic differentiation marker, CD11b, was monitored by direct immunofluorescence staining and flow cytometric analysis as previously described [Freemerman et al. 1997]. Following drug treatment, suspension and adherent cells were enumerated by a Coulter Counter and 2×10^6 cells were pelleted by centrifugation. The supernatant was aspirated and the cells were resuspended in 300 μl of ice-cold PBS. Two 100 μl aliquots from each sample were then combined with either phycoerythrin-1 (10 μl) or the IgG control. Samples were incubated for 20 min at 4° C. and diluted in PBS (1 ml). Sample data were collected using a Becton Dickinson FACScan flow cytometer and analyzed with Verity Winlist Software (Verity; Topsham, Me.). […] U937 cells were transfected with a full-length p21^WAF1/CIP1 promoter (base pairs 1-2326) as described by Chinery et al. [Chinery et al. 1997] utilizing electroporation (Eppendorf Multiporator, 620V, 60 μs) in hypoosmolar buffer. In each experiment, pSV-βgal (Promega), containing the β-galactosidase gene under the control of the constitutively active SV40 promoter and enhancer, was co-transfected with the luciferase reporter at a ratio of 1:5 (w/w) to normalize for transfection efficiency. The cells were incubated overnight in complete media and treated with 10 nM PMA, 100 nM FP, or 10 nM PMA/100 nM FP for 3 or 6 h. At indicated times, cells were washed in serum-free media, resuspended in 0.25M Tris-HCl pH 7.8, lysed by rapid freeze-thaw, centrifuged and the supernatant frozen at −70° C. Lysates (20 μL) were mixed with luciferase assay reagent (100 μL) and monitored for 20 seconds in a luminometer (Monolight 2010). For β-galactosidase activity, lysates (50 μL) were mixed in triplicate with an equal volume of […] assay buffer (2×) in a 96-well plate and incubated overnight. The reaction was terminated by addition of NaCO3 and absorbance was measured at 405 nm in a Vmax plate reader (Molecular Devices). Activity was determined by comparison to a standard curve. […]

ERK1/2 = test: Western analysis of phosphorylated p44/p42 MAPK in U937 cells; type: cell-based, human; settings: 10 nM PMA, 100 nM FP, 30 min-6 h
Procedure: as §3

pRb = test: Western analysis of underphosphorylated pRb in U937 cells; type: cell-based, human
Procedure: as §3, §4, §5

U937 cells [4] = test: clonogenic survival assay; type: cell-based, human; settings: 24-h exposure; 10 nM PMA alone or 10 nM PMA/100 nM FP
Procedure: Clonogenic survival assays. Clonogenic survival assays assessed the effects of 10 nM PMA, FP (50 or 100 nM) or PMA/FP co-treatments on leukemic cell self-renewal capacity. Cell densities were determined after 24-h drug treatment using a Coulter Counter (Coulter Electronics, Hialeah, Fla.). Cells were pelleted by centrifugation and resuspended in fresh media to achieve a final cell density of 3×10^5/ml. A total of 4500 cells were plated in soft agar cloning medium for each condition as previously described [Powell et al. 1995]. Colonies, defined as groups of≧50 cells, were scored after 12 days of incubation. Clonogenic survival in drug-treated samples was expressed as a percentage relative to untreated controls.

U937 cells [5] = test: plastic adherence (differentiation); type: cell-based, human; settings: 10 nM PMA alone or with FP 100 nM
Procedure: as §6

[6] = tested on: U937 myelomonocytic human leukemia cells; test: percent cell death; type: cell-based; settings: 1 μM SAHA, 100 nM FP, 24 hours after administration
[7] = tested on: HL-60 promyelocytic leukemia cells; test: percent cell death; type: cell-based, human; settings: SAHA 1 and 1.5 μM alone or with 100 or 150 nM FP
U937 cells [8] = test: cell cycle analysis (propidium iodide, flow cytometry); type: cell-based, human; settings: 24 h after administration of SAHA, FP or both
Procedure: Cell Cycle Analysis. Following drug treatment, cells were pelleted by centrifugation at 500 g×6 min, and resuspended in 70% ethanol. The cells were incubated on ice for at least 1 h and resuspended in 1 ml cell cycle buffer (0.38 mM Na-Citrate, 0.5 mg/ml RNase A, and 0.01 mg/ml propidium iodide) at a concentration of 10×10^5 cells/ml, stored in the dark at 4 C until analysis (24 h), using a Becton-Dickinson FACScan flow cytometer and Verity Winlist software (Verity Software, Topsham, Me.).

U937/Bcl-2 cells = test: morphological assessment of apoptosis in Bcl-2 overexpressing cells; type: cell-based, human; settings: ara-C 1.0 μM x 6 h
Source text: as §1, §2

## CC1=C(/C=C/C(C)=C/C=C/C(C)=C/C(=O)O)C(C)(C)CCC1 [ATRA, all trans retinoic acid]
[1]
  % apoptosis: minimal effect

## CCCCCCCCCCCCCC(=O)O[C@@H]1[C@@H](C)[C@@]2(O)[C@@H](C=C(CO)C[C@]3(O)C(=O)C(C)=C[C@@H]23)[C@@H]2C(C)(C)[C@]12OC(C)=O [PMA, phorbol 12-myristate 13-acetate]
p21WAF1/CIP1; 10 nM PMA, FP 50-100 nM, 24 h
  p21WAF1/CIP1 expression: significant increase
p21WAF1/CIP1; PMA 10 nM
  time to induction of p21WAF1/CIP1 after drug addition: ≤ 1 h
p27KIP1
  p27KIP1 expression: slight increase
[2]
  p21WAF1/CIP1 reporter activity: markedly increased
U937 cells [3]
  percentage of cells displaying CD11b expression: 26%
ERK1/2
  phosphorylation (activation) of ERK1/2: increase in phosphorylated ERK1/2
pRb; 10 nM PMA alone
  time of pRb dephosphorylation: 3 h
pRb; 10 nM PMA, FP 50, 80 or 100 nM, 24 h
  full-length underphosphorylated pRb: significant increase
U937 cells [4]
  clonogenic survival, percentage relative to untreated controls: 15%
U937 cells [5]
  percentage of cells with plastic adherence: 80%

## O=C(CCCCCCC(=O)Nc1ccccc1)NO [SAHA, suberoylanilide hydroxamic acid]
[6]
  cell death: ineffective
[7]
  cell death: modest levels of cell death
U937 cells [8]
  cell cycle distribution: prominent increase in the percentage of cells arresting in G0/G1

## Nc1ccn([C@@H]2O[C@H](CO)[C@@H](O)[C@@H]2O)c(=O)n1 [ara-C, 1-β-D-arabinofuranosylcytosine]
U937/Bcl-2 cells
  lethal effects in Bcl-2 overexpressing cells: significantly protected
